Data set [1] deals with HIV-1 constructs containing mutant IN H51Y/R263K. Put plainly: Single-round HIV-1 infectivity assay, IN double mutant H51Y/R263K. The class given is cell-based. The settings on record: Human immunodeficiency virus 1; Table 8; read-out: EC50 (nM, IN mutants) H51Y/R263K. On the procedure:
(§1) Single-Round HIV-1 Infectivity Assay.
(§2) Human embryonyl kidney cell culture cell line 293 was acquired from the American type Culture Collection (ATCC).
(§3) […]. […] The virus-containing supernatants were then harvested, clarified by low-speed centrifugation, filtrated, and diluted for preparation in infection assays. […] After compound incorporation and activation in the cell, 100 μL of virus-stock diluted to achieve a maximum luciferase signal between 0.2 and 1.5 RLUs was added to each well and further incubated at 37° C. for 48 hrs. […] Activity was normalized to infectivity in the absence of target compounds. KaleidaGraph (Synergy Software, Reading, Pa.) was used to perform regression analysis on the data. EC50 values were determined from the fit model.
(§4) pNLNgoMIVR^−ΔEnv.LUC has been described previously (Zhao et al. 2008). The integrase codon reading frame was removed from pNLNgoMIVR^−ΔEnv LUC (between KpnI and SalI sites) and placed between the KpnI and SalI sites of pBluescript II KS+. Using that construct as the wild-type template, we prepared the following HIV-1 Integrase-resistant mutants via the QuikChange II XL (Stratagene, La Jolla, Calif.) site-directed mutagenesis protocol: H51Y, T66I, E92Q, G118R, Y143R, Q148H, Q148K, N155H, R263K, G140S+Q148H, G140A+Q148K, E138K+Q148K, and H51Y+R263K. The following sense with cognate antisense (not shown) oligonucleotides (Integrated DNA Technologies, Coralville, Iowa) were used in the mutagenesis: H51Y, 5′-[…]-3; T66I, 5′-[…]-3′; E92Q, 5′-[…]-3′; G118R, 5′-[…]-3′; E138K, 5′-[…]-3; G140A, 5′-[…]-3; G140S, 5′-[…]-3′; Y143R, 5′-[…]-3′; Q148H, 5′-[…]-3′; Q148K, 5′-[…]-3; N155H, 5′-[…]-3′; R263K 5′-[…]-3′. The double mutation G140S+Q148H was constructed by using the previously generated Q148H mutant and the appropriate oligonucleotide for the 2nd mutation, G140S. The double mutation G140A+Q148K was made by using the Q148K mutant and the appropriate oligonucleotide for the 2nd mutation, G140A. The double mutation E138K+Q148K was made by using the Q148K mutant and the appropriate oligonucleotide for the 2nd mutation, E138K. The double mutation H51Y+R263K was constructed by using the previously generated H51Y mutant and the appropriate oligonucleotides for the 2nd mutation, R263K. The DNA sequence of each construct was verified independently by DNA sequence determination. The mutant integrase coding sequences from pBluescript II KS+ were then subcloned into pNLNgoMIVR^−ΔEnv LUC (between the KpnI and SalI sites) to produce the full-length mutant HIV-1 Integrase constructs. These DNA sequences were additionally checked independently by DNA sequence determination.

The test system of data set [2] is HIV-1 constructs containing mutant IN T66I. Put plainly: Single-round HIV-1 infectivity assay, IN mutant T66I. The settings on record: Human immunodeficiency virus 1; Table 8; read-out: EC50 (nM, IN mutants) T66I. The class given is cell-based. On the procedure:
as §1, §2, §3, §4

Data set [3] has as its system HIV-1 constructs containing mutant IN R263K. Kind of data set: Single-round HIV-1 infectivity assay, IN mutant R263K. Format: cell-based. The settings on record: Human immunodeficiency virus 1. On the procedure:
as §1, §2, §3, §4

Data set [4] deals with HIV-1 constructs containing mutant IN H51Y. Put plainly: Single-round HIV-1 infectivity assay, IN mutant H51Y. The class given is cell-based. To be noted: Human immunodeficiency virus 1; Table 8; read-out: EC50 (nM, IN mutants) H51Y. On the procedure:
as §1, §2, §3, §4

The test system of data set [5] is HIV-1 constructs containing mutant IN E92Q. Put plainly: Single-round HIV-1 infectivity assay, IN mutant E92Q. The class given is cell-based. To be noted: Human immunodeficiency virus 1; Table 8; read-out: EC50 (nM, IN mutants) E92Q. On the procedure:
as §1, §2, §3, §4

The nature of another data set: in vitro. Format: cell-based, human. The settings on record: human, 50% reduction in the level of ATP in HOS cells. An outline of the steps:
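Cells exposed to compounds over a concentration range for 48 hrs at 37° C. Viability read as cellular ATP by luciferase (ATPlite) luminescence after lysis, normalised to untreated cells; CC50 derived by regression fit.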

The subject of another data set is HIV-1 WT IN. Kind of data set: High growth serum assays in cells (WT). The class given is cell-based.
Data set [6] deals with HIV-1 constructs containing mutant IN E138K-Q148K. Kind of data set: Single-round HIV-1 infectivity assay, IN double mutant E138K-Q148K. Format: cell-based. Here is the method: as §1, §2, §3
pNLNgoMIVR^−ΔEnv.LUC has been described previously (Zhao et al. 2008). The integrase codon reading frame was removed from pNLNgoMIVR^−ΔEnv LUC (between KpnI and SalI sites) and placed between the KpnI and SalI sites of pBluescript II KS+. Using that construct as the wild-type template, we prepared the following HIV-1 Integrase-resistant mutants via the QuikChange II XL (Stratagene, La Jolla, Calif.) site-directed mutagenesis protocol: H51Y, T66I, E92Q, G118R, Y143R, Q148H, Q148K, N155H, R263K, G140S+Q148H, G140A+Q148K, E138K+Q148K, and H51Y+R263K. […]

Setting [7] is: Table 8, read-out: EC50 (nM, IN mutants) R263K.
Setting [8] is: Human immunodeficiency virus 1, read-out: EC50 (nM), Table 9, 10% FBS.
Setting [9] is: Human immunodeficiency virus 1, read-out: EC50 (nM), Table 9, 15% FBS.
Where [10] appears, read: Table 6, read-out: EC50 (nM, IN Mutants) R263K.

Where two headings read alike, the source gives them in different places.

As to `C[C@@H]1CCO[C@H]2Cn3cc(C(=O)NCc4ccc(F)cc4F)c(=O)c(O)c3C(=O)N12` [DTG, dolutegravir, reference compound], the EC50 in data set [1] is 16 nM; in data set [2], 0.9 nM; in data set [3] (setting [7]) it was 11.3 nM; in data set [4], 3.2 nM; in data set [5], 2.3 nM. Moreover, the CC50 (usually the concentration that lowers cell viability or growth by half) in “in vitro” (Table 8) is above 250 µM.

Consider `O=C(NCc1ccc(F)cc1F)c1c(NCCO)c2cc(CCCCCO)cnc2n(O)c1=O` [XZ437, N-(2,4-Difluorobenzyl)-1-hydroxy-4-((2-hydroxyethyl)amino)-6-(5-hydroxypentyl)-2-oxo-1,2-dihydro-1,8-naphthyridine-3-carboxamide], for which the EC50 in data set [1] was found to be 30.9 nM; in data set [2] it was 1.9 nM; in data set [3] (setting [7]), 18.1 nM; in data set [4], 10.8 nM; in data set [5] it was 6.5 nM. Moreover, the CC50 in the data set “in vitro” (Table 8) was above 250 µM.

On to `CC(=O)OCCCc1cnc2c(c1)c(N)c(C(=O)NCc1ccc(F)cc1F)c(=O)n2O` [XZ424, 3-(5-Amino-6-((2,4-difluorobenzyl)carbamoyl)-8-hydroxy-7-oxo-7,8-dihydro-1,8-naphthyridin-3-yl)propyl acetate], for which the EC50 in data set [1] was 3.9 nM; in data set [2], 0.75 nM; in data set [3] (setting [7]), 1.75 nM; in data set [4] it was 0.8 nM; in data set [5], 1.2 nM. In addition, the CC50 in “in vitro” (Table 8) was above 250 µM.

With `Nc1c(C(=O)NCc2ccc(F)cc2F)c(=O)n(O)c2ncc(CCCCCCCCO)cc12` [XZ433, 4-Amino-N-(2,4-difluorobenzyl)-1-hydroxy-6-(8-hydroxyoctyl)-2-oxo-1,2-dihydro-1,8-naphthyridine-3-carboxamide], the EC50 in data set [1] amounted to 22.4 nM; in data set [2], 1.7 nM; in data set [3] (setting [7]), 3.8 nM; in data set [4] it was 4.8 nM; in data set [5], 2.6 nM. For the same molecule, in the data set “in vitro” (Table 8), the CC50 was above 250 µM.

With `Nc1c(C(=O)NCc2ccc(F)cc2F)c(=O)n(O)c2ncc(CCCCCCO)cc12` [XZ426, 4-Amino-N-(2,4-difluorobenzyl)-1-hydroxy-6-(6-hydroxyhexyl)-2-oxo-1,2-dihydro-1,8-naphthyridine-3-carboxamide], the EC50 was 5.2 nM in data set [1]; 0.5 nM in data set [2]; 8.4 nM in data set [3] (setting [7]); 1.6 nM in data set [4]; 0.74 nM in data set [5]; 0.8 ± 0.2 nM with HIV-1 WT IN (setting [8]). Also, the CC50 in the data set “in vitro” (Table 8) is above 250 µM.

As to `COC(=O)CCc1cnc2c(c1)c(N)c(C(=O)NCc1ccc(F)cc1F)c(=O)n2O` [XZ434, Methyl 3-(5-amino-6-((2,4-difluorobenzyl)carbamoyl)-8-hydroxy-7-oxo-7,8-dihydro-1,8-naphthyridin-3-yl)propanoate], the EC50 in data set [1] is 2.4 nM; in data set [2], 0.53 nM; in data set [3] (setting [7]), 0.5 nM; in data set [4] it was 0.63 nM; in data set [5] it was 2 ± 1.1 nM; with HIV-1 WT IN (setting [8]), 0.62 ± 0.2 nM. Besides, the EC50 in the data set on HIV-1 WT IN (setting [9]) stood at 0.6 nM. The half-maximal cytotoxic concentration (CC50) in “in vitro” (Table 8) is above 250 µM.

As to `COC(=O)CCc1cnc2c(c1)c(NCCO)c(C(=O)NCc1ccc(F)cc1F)c(=O)n2O` [XZ438, Methyl 3-(6-((2,4-difluorobenzyl)carbamoyl)-8-hydroxy-5-((2-hydroxyethyl)amino)-7-oxo-7,8-dihydro-1,8-naphthyridin-3-yl)propanoate], the EC50 in data set [1] was 2.5 nM; in data set [2] it was 0.62 nM; in data set [3] (setting [7]), 6.5 nM; in data set [4] it was 6.9 nM; in data set [5], 2.7 nM. In addition, the CC50 in the data set “in vitro” (Table 8) is above 250 µM.

On to `COC(=O)CNc1c(C(=O)NCc2ccc(F)cc2F)c(=O)n(O)c2ncccc12` [XZ379, Methyl 2-((3-((2,4-difluorobenzyl)carbamoyl)-1-hydroxy-2-oxo-1,2-dihydro-1,8-naphthyridin-4-yl)amino)acetate], for which the results for the EC50 (in data set [3] (setting [10]); with HIV-1 WT IN (setting [8]); in the data set on HIV-1 WT IN (setting [9])) were 25.9 ± 8.2 nM, 5 nM and 1 nM, respectively. The CC50 in the data set “in vitro” (Table 3) and in the data set “in vitro” (Table 6) was above 250 µM in each case.

On to `Nc1c(C(=O)NCc2ccc(F)cc2F)c(=O)n(O)c2ncc(CCCO)cc12` [XZ423, 4-Amino-N-(2,4-difluorobenzyl)-1-hydroxy-6-(3-hydroxypropyl)-2-oxo-1,2-dihydro-1,8-naphthyridine-3-carboxamide], for which the EC50 was found to be 14.7 nM in data set [1]; 1.1 nM in data set [2]; 2.5 nM in data set [3] (setting [7]); 2.6 nM in data set [4]; 4.8 ± 2 nM in data set [5]. The CC50 in the data set “in vitro” (Table 8) was above 250 µM.

As to `O=C(NCc1ccc(F)cc1F)c1c(O)c2cccnc2n(O)c1=O` [XZ351, N-(2,4-difluorobenzyl)-1,4-dihydroxy-2-oxo-1,2-dihydro-1,8-naphthyridine-3-carboxamide], the EC50 in data set [3] (setting [10]) came out at 35.9 ± 7.6 nM. Moreover, the results for the CC50 in “in vitro” (Table 2), in “in vitro” (Table 3) and in the data set “in vitro” (Table 6) were 137 µM, 137 ± 20.1 µM and 137 ± 20.1 µM, respectively. In data set [6], the “Integrase Mutants KK (E138K-Q148K), fold-change in EC50 relative to WT” value stood at 32 x.

For the molecule `Nc1c(C(=O)NCc2ccc(F)cc2F)c(=O)n(O)c2ncc(CCCCCO)cc12` [XZ419, 4-Amino-N-(2,4-difluorobenzyl)-1-hydroxy-6-(5-hydroxypentyl)-2-oxo-1,2-dihydro-1,8-naphthyridine-3-carboxamide], the EC50 came out at 2.6 nM in data set [1]; 0.93 nM in data set [2]; 2.6 nM in data set [3] (setting [7]); 3.8 nM in data set [4]; 3.8 nM in data set [5]; 0.93 ± 0.2 nM with HIV-1 WT IN (setting [8]). Further, the EC50 in the data set on HIV-1 WT IN (setting [9]) is 2.1 ± 0.4 nM. The 50% cytotoxic concentration (CC50) in “in vitro” (Table 8) was above 250 µM.

As for `CC(=O)OCCNc1c(C(=O)NCc2ccc(F)cc2F)c(=O)n(O)c2ncccc12` [XZ402, 2-((3-((2,4-difluorobenzyl)carbamoyl)-1-hydroxy-2-oxo-1,2-dihydro-1,8-naphthyridin-4-yl)amino)ethyl acetate], the EC50 in data set [3] (setting [10]) came out at 16 ± 5.1 nM; in the data set on HIV-1 WT IN (setting [8]), 2.2 ± 0.3 nM; in the data set with HIV-1 WT IN (setting [9]) it was 1 nM. Also, the CC50 in “in vitro” (Table 3) and in “in vitro” (Table 6) was above 250 µM each time.

Take `O=C(NCc1ccc(F)cc1F)c1c(O)c2c(CO)ccnc2n(O)c1=O` [XZ440, N-(2,4-Difluorobenzyl)-1,4-dihydroxy-5-(hydroxymethyl)-2-oxo-1,2-dihydro-1,8-naphthyridine-3-carboxamide]: the EC50 in data set [1] turned out to be 9 ± 0.6 nM; in data set [2], 1.4 nM; in data set [3] (setting [7]) it was 4 ± 1.4 nM; in data set [4], 5 nM; in data set [5], 4 ± 0.6 nM. The half-maximal cytotoxic concentration (CC50) in “in vitro” (Table 8) was above 250 µM.

The values are drawn from US9676771B2, “Compounds for inhibiting drug-resistant strains of HIV-1 integrase” (priority 2013, dated 2017).
